According to ChEMBL document CHEMBL5143724, “Small Molecules Promote Selective Denaturation and Degradation of Tubulin Heterodimers through a Low-Barrier Hydrogen Bond” (J Med Chem, 2022):
Active and inactive are the calls of the source.

Key:
HeLa [1] = experiment: Reduction in Alpha tubulin mRNA expression in human HeLa cells at 1 uM measured upto 16 hrs by qPCR analysis; assay type: functional, cell-based
HeLa [2] = experiment: Reduction in Beta tubulin mRNA expression in human HeLa cells at 1 uM measured upto 16 hrs by qPCR analysis; assay type: functional, cell-based
[3] = target: T1, Tubulin alpha (Homo sapiens) (UniProt P0DPH7+P68366+Q71U36+P68363+Q9BQE3+Q6PEY2+A6NHL2+Q9NY65); experiment: Induction of Alpha tubulin degradation in human HeLa cells incubated for 24 hrs by immunoblot analysis; assay type: cell-based; conditions: DDE = dose-dependent effect
[4] = target: T2, Tubulin beta (Homo sapiens) (UniProt P68371+Q9H4B7+Q13509+P04350+Q3ZCM7+P07437+Q13885+Q9BVA1+Q9BUF5+A6NNZ2); experiment: Induction of Beta tubulin degradation in human HeLa cells incubated for 24 hrs by immunoblot analysis; assay type: cell-based; conditions: DDE = dose-dependent effect
[5] = target: T1, Tubulin alpha (Homo sapiens); experiment: Induction of Alpha tubulin degradation in human HeLa cells at 1 uM incubated for 16 hrs in presence of maytansine by immunoblot analysis; assay type: cell-based
[6] = target: T2, Tubulin beta (Homo sapiens); experiment: Induction of Beta tubulin degradation in human HeLa cells at 1 uM incubated for 16 hrs in presence of pironetin by immunoblot analysis; assay type: cell-based
Tubulin (Sus scrofa) = Tubulin (Sus scrofa) (UniProt P02554+P02550); experiment: Induction of porcine tubulin aggregation assessed as formation of spherical sized tubulin aggregates at 20 uM incubated for 4 hrs by TEM analysis; assay type: protein assay
Tubulin (Homo sapiens) = Tubulin (Homo sapiens) (UniProt P68371+Q9H4B7+P0DPH7+P68366+Q13509+Q71U36+P04350+Q3ZCM7+P07437+P68363+Q9BQE3+Q6PEY2+Q13885+Q9BVA1+Q9BUF5); experiment: Induction of tubulin denaturation (unknown origin) pre incubated for 2 to 8 hrs with compound followed by GH addition measured after 30 mins by spectrophotometer based microplate reader method; assay type: protein-complex assay; conditions: time 2.5-8.5 hrs
[7] = target: T1, Tubulin alpha (Homo sapiens); experiment: Induction of Alpha tubulin degradation in human HCT-116 cells incubated for 24 hrs by immunoblot analysis; assay type: cell-based; conditions: dose 0.3-30 µM, DDE = dose-dependent effect
[8] = target: T2, Tubulin beta (Homo sapiens); experiment: Induction of Beta tubulin degradation in human HCT-116 cells incubated for 24 hrs by immunoblot analysis; assay type: cell-based; conditions: dose 0.3-30 µM, DDE = dose-dependent effect
HeLa [9] = experiment: Antiproliferative activity against human HeLa cells assessed as cell viability at 0.001 to 100 uM incubated for 48 hrs by MTT assay; assay type: functional, cell-based; conditions: dose 0.001-100 µM
[10] = target: T2, Tubulin beta (Homo sapiens); experiment: Induction of Beta tubulin degradation in human HeLa cells at 0.001 to 100 uM incubated for 16 hrs by immunoblotting analysis; assay type: cell-based; conditions: dose 0.001-100 µM

Measured: Activity

Tubulin (Sus scrofa), sequence (P02550 whole entry, looked up): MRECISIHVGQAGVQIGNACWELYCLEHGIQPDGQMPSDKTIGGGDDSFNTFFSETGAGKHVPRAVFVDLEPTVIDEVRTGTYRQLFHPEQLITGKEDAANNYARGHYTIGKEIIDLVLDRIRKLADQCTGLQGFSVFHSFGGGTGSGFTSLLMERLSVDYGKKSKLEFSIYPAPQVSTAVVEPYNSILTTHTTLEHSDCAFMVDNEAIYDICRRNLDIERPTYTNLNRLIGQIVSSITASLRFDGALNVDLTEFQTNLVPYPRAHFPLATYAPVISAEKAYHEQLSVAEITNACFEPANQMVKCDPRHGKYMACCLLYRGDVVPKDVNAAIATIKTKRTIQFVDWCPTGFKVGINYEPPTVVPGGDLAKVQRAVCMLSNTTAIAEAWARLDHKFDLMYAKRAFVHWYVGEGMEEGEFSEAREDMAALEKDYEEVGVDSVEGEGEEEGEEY
Tubulin (Sus scrofa), sequence (P02554 whole entry, looked up): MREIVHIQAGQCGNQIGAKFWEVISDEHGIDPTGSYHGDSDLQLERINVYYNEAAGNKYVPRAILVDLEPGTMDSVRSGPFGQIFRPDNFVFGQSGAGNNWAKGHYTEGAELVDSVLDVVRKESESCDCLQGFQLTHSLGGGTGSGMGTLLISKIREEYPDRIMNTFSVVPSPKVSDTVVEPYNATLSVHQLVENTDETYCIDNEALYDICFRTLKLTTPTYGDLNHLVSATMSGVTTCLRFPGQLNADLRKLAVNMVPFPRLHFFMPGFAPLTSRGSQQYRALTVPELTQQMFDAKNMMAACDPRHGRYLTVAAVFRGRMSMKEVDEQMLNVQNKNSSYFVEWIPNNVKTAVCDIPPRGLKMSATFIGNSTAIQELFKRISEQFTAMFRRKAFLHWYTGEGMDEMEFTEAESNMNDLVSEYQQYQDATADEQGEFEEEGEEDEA

COc1cccc(-c2cc(NCc3ccc4c(c3)OCO4)nc(N)n2)c1
active: HeLa [1] | HeLa [2] | [3] Dde | [4] Dde | [5] | [6] | Tubulin (Sus scrofa) | Tubulin (Homo sapiens) | [7] Dde | [8] Dde

CCCCNc1cc2c(cn1)[nH]c1ccccc12
active: HeLa [9] | [10]

c1ccc(Oc2cccc(CNc3cc4ccccc4cn3)c2)cc1
active: HeLa [9] | [10]

c1ccc(Oc2cccc(CNc3ccccn3)c2)cc1
active: HeLa [9] | [10]
